Patent publication US20180177872A1, “Combination of PD-1 antagonist with an EGFR inhibitor” (priority 2015, published 2018)

How the values were obtained:
[1] = tested on: TEC-family kinases (ITK, TEC, and TXK); experiment: Cellular IL-2 production assay in Jurkat cells; format: cell-based; details: Homo sapiens, CD3/CD28 stimulation, read-out: IC50, IL2-Production
Method: The cellular IL-2 Production assay was carried out using Jurkat cells. Upon CD3/CD28 stimulation overnight in the presence of various concentrations of compound, the IL-2 content in the conditioned media was measured by ELISA, and compound IC50 was determined.

mouse CD4+ T cells = experiment: Mouse CD4 T cell proliferation assay; format: cell-based; details: Cellular
[2] = tested on: primary human CD4+ T cells; experiment: Human CD4 T cell proliferation assay; format: cell-based; details: Cellular
Method: In the Human CD4 T cell assay, primary human CD4+ T cells isolated from a leukopak were cultured in the presence of anti-CD3/anti-CD28 beads to stimulate T cell proliferation. After 4 days, cell viability was measured using Cell Titer Glo.

mouse B cells = experiment: Mouse B cell proliferation assay; format: cell-based; details: Cellular
Method: In the Mouse B cell assay, B cells are purified from mouse splenocytes and plated in the tissue culture plates with supplement of anti-IgM and m-IL4. […] After 3 days, cell viability was measured using Cell Titer Glo.

TMD-8 cells (BTK) = experiment: BTK-dependent TMD-8 cell proliferation assay; format: cell-based; details: Homo sapiens, TMD8, Cellular
Method: After 3 days, cell viability was measured using Cell Titer Glo.

TEC = target: T1, TEC (Homo sapiens, UniProt P42680); experiment: TEC biochemical assay (Caliper LabChip)
T1 sequence (P42680 1-631): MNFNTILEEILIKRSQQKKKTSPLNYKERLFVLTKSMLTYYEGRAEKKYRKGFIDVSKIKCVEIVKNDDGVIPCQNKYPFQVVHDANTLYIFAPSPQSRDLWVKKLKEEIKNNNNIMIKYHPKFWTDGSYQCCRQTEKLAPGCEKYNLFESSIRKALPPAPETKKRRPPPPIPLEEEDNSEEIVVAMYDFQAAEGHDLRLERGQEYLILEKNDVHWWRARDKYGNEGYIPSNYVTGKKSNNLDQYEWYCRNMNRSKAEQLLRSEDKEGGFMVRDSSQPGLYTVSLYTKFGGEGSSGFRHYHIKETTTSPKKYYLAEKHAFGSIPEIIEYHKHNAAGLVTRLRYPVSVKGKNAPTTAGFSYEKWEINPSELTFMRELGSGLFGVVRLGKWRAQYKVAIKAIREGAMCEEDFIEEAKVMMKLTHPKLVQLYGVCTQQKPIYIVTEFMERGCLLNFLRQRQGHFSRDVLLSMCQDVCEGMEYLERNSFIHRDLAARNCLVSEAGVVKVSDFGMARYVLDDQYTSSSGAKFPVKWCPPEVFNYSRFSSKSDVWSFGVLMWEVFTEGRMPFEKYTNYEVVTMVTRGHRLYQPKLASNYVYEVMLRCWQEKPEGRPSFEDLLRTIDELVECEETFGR

TXK = target: T2, TXK (Homo sapiens, UniProt P42681); experiment: TXK biochemical assay (Caliper LabChip)
T2 sequence (P42681 1-527): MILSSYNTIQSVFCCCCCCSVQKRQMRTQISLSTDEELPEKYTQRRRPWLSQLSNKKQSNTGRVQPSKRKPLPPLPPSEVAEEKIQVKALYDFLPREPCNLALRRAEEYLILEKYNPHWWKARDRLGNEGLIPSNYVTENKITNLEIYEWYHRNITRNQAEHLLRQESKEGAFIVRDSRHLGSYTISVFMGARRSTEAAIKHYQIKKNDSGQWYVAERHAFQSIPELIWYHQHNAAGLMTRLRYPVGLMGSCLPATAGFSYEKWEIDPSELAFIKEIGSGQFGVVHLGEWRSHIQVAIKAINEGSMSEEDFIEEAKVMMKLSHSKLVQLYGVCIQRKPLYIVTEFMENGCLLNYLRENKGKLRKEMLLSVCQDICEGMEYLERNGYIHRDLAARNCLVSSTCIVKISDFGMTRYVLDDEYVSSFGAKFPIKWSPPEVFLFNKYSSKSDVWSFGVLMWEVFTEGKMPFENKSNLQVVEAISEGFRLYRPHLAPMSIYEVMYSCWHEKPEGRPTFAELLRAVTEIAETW

[3] = tested on: T-cell dependent antibody response; experiment: T-cell dependent antibody response (TDAR) assay with KLH; details: for anti-KLH IgG mean percent difference compared to vehicle controls / anti-KLH IgM mean percent difference compared to vehicle controls: 30 mg/kg/day
human PD-1 protein [4] = target: human PD-1 protein (Homo sapiens, UniProt Q15116); experiment: Biacore binding on human PD-1 protein; details: Biacore method
Method: The binding of an exemplary humanized anti-PD-1 antibodies including Clone B and Clone E as shown in Table 1 on human PD-1 protein was measured using Biacore method.

[5] = Iso-electric focussing (Novex IEF) analysis; format: physicochemical; details: estimated from staining positions against the IEF 3-10 marker
Method: Non-reduced samples of Protein A purified antibody were electrophoresed as described below.
5 μg of Protein A purified samples were electrophoresed on a 1.0 mm Novex pH 3-10 gradient gel (Invitrogen, EC66552BOX) using manufacturers recommended running conditions. A 10 μl aliquot of IEF pH 3-10 markers (Invitrogen, 39212-01) was included on the gel. Once electrophoresed, gels were fixed with 10% TCA solution for 30 min and then stained with InstantBlue (TripleRed, ISB01L) over night at room temperature. Images of the stained gels were analysed on a BioSpectrum Imaging System (UVP).

[6] = Pharmacokinetic (PK) modeling of flat dosing schedules
cynomolgus PD-1 protein = cynomolgus PD-1 protein (cynomolgus, UniProt B0LAJ3 25-170); experiment: Biacore, cynomolgus PD-1
human PD-1 protein [7] = target: T3, human PD-1 protein (human, UniProt Q15116 25-167, limits assumed); experiment: Biacore, human PD-1 protein
T3 construct: Soluble protein in the Biacore assay

[8] = target: T4, human PD-1 expressed on 300.19 cells (human, UniProt Q15116 25-288); experiment: blocking of PD-L1 binding on human PD-1-expressing 300.19 cells; competitor PD-L1
T4 construct: whole, on cells; also called human PD-1-expressing 300.19 cells
T4 sequence (Q15116 25-288): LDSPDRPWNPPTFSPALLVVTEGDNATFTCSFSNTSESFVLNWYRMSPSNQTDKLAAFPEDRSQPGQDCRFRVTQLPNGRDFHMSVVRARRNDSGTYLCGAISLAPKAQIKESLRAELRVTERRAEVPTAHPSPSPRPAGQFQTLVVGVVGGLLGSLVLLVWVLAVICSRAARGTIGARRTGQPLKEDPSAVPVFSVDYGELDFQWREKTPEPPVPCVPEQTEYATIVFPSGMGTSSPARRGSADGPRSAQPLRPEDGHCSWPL

Chain of human PD-1 protein (Homo sapiens, UniProt Q15116) (Q15116 25-288): as above
T3 sequence (Q15116 25-167 limits assumed): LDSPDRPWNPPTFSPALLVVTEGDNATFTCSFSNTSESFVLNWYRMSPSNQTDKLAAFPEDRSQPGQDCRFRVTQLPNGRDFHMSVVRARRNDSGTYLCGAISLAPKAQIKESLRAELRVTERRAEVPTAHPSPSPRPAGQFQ
Chain of cynomolgus PD-1 protein (B0LAJ3 entry or part of it limits assumed): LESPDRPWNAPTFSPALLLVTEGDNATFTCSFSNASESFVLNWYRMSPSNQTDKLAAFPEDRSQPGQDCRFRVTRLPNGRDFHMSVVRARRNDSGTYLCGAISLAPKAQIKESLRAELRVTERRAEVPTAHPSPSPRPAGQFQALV

Cc1cc(C(=O)Nc2nc3cccc(Cl)c3n2[C@@H]2CCCCN(C(=O)/C=C/CN(C)C)C2)ccn1 [Compound A, (R,E)-N-(7-chloro-1-(1-(4-(dimethylamino)but-2-enoyl)azepan-3-yl)-1Hbenzo[d]imidazol-2-yl)-2-methylisonicotinamide]
IC50 [1]: 21 nM
IC50 (mouse CD4+ T cells): 107 nM
IC50 [2]: 140 nM
IC50 (mouse B cells): 295 nM
IC50 (TMD-8 cells (BTK)): 224 nM
IC50 (TEC): 0.9 nM
IC50, TEC (TEC; Biochemical): single digit nM
IC50 (TXK): 2 nM
IC50, TXK (TXK; Biochemical): single digit nM
anti-KLH IgG mean percent difference compared to vehicle controls ([3]; female rats, study day 19): −96%
anti-KLH IgM mean percent difference compared to vehicle controls ([3]; female rats, study day 19): −88%
anti-KLH IgG mean percent difference compared to vehicle controls ([3]; female rats, study day 21): −98%
anti-KLH IgM mean percent difference compared to vehicle controls ([3]; female rats, study day 21): −75%
anti-KLH IgG mean percent difference compared to vehicle controls ([3]; female rats, study day 23): −97%
anti-KLH IgM mean percent difference compared to vehicle controls ([3]; female rats, study day 23): −71%
anti-KLH IgG mean percent difference compared to vehicle controls ([3]; female rats, study day 25): −96%
anti-KLH IgM mean percent difference compared to vehicle controls ([3]; female rats, study day 25): −63%
anti-KLH IgG mean percent difference compared to vehicle controls ([3]; female rats, study day 36): −69%
anti-KLH IgM mean percent difference compared to vehicle controls ([3]; female rats, study day 36): −67%
decrease of anti-KLH antibody production after withdrawal of treatment ([3]; male and female rats, recovery day 42 and 53): reversible
anti-KLH IgG mean percent difference compared to vehicle controls ([3]; male rats, study day 19): −78%
anti-KLH IgM mean percent difference compared to vehicle controls ([3]; male rats, study day 19): −67%
anti-KLH IgG mean percent difference compared to vehicle controls ([3]; male rats, study day 21): −84%
anti-KLH IgG mean percent difference compared to vehicle controls ([3]; male rats, study day 23): −80%
anti-KLH IgG mean percent difference compared to vehicle controls ([3]; male rats, study day 25): −83%

BAP049-Clone E: humanized anti-programmed death-1 (PD-1) IgG4 monoclonal antibody; sequences in Table 1
Ka (human PD-1 protein [4]): 278000 M⁻¹ s⁻¹
Kd (human PD-1 protein [4]; rate constant): 0.000213 s⁻¹
Basic charge isoforms (pI) [5]: 7.55
pI of predominant charge isoform [5]: 7.5
Half-Life ([6]; 46 patients in PK dataset): 20 [17, 23] days
IIV of CL ([6]; 46 patients in PK dataset): 62%
IIV of Half-Life ([6]; 46 patients in PK dataset): 64%
IIV of Volume of distribution at SS ([6]; 46 patients in PK dataset): 22%
Volume of distribution at SS ([6]; 46 patients in PK dataset): 7.2 [6.5, 7.9] L
patients with Cmin above EC50 ([6]; flat dose): Over 99.5%
patients with Cmin above EC90 ([6]; flat dose): over 93%
CL ([6]; flat dosing schedules, 46 patients in PK dataset): 10.9 [8.9, 13.2] mL/h

B1: BAP049-Clone-E (antibody, human IgG4 S228P, kappa, V domains shown)
VH: EVQLVQSGAEVKKPGESLRISCKGSGYTFTTYWMHWVRQATGQGLEWMGNIYPGTGGSNFDEKFKNRVTITADKSTSTAYMELSSLRSEDTAVYYCTRWTTGTGAYWGQGTTVTVSS
VL: EIVLTQSPATLSLSPGERATLSCKSSQSLLDSGNQKNFLTWYQQKPGQAPRLLIYWASTRESGVPSRFSGSGSGTDFTFTISSLEAEDAATYYCQNDYSYPYTFGQGTKVEIKR
notes: Humanized IgG4(S228P)/kappa; also called Antibody B; exemplary humanized anti-PD-1 antibody
Kd (cynomolgus PD-1 protein): 0.093 nM
Kd (human PD-1 protein [7]): 0.0827 nM
IC50 [8]: 0.94 nM
